# Measured values as given in ChEMBL document CHEMBL5505992, “Novel membrane-targeting isoxanthohumol-amine conjugates for combating methicillin-resistant Staphylococcus aureus (MRSA) infections” (Eur J Med Chem, 2024).
# Activity calls are given as the source filed them. The calls are words filed in the database; no cut-off is given here.
# Assays:
# [1] = Toxicity in Kunming mouse assessed as animal death at 20 mg/kg, sc measured after 24 hrs; format: organism-based; conditions: in vivo
# [2] = Toxicity in Kunming mouse assessed as histopathological abnormalities in skin at 10 mg/kg, sc measured after 24 hrs by H and E staining based analysis; format: organism-based; conditions: in vivo
# [3] = tested on: Staphylococcus aureus; assay: Antibacterial activity against methicillin-resistant Staphylococcus aureus clinical isolate MRSA-14 measured after 16 to 18 hrs by CLSI method; format: functional; conditions: time 16-18 hrs
# [4] = Toxicity in Kunming mouse assessed as effect on heart at 10 mg/kg, sc measured after 24 hrs by H and E staining based analysis; format: organism-based; conditions: in vivo
# [5] = tested on: Staphylococcus aureus; assay: Bactericidal activity against Staphylococcus aureus ATCC 29213 assessed as bacterial killing at 4 times MIC measured within 4 to 8 hrs by time kill assay relative to control; format: functional; conditions: time 4-8 hrs
# [6] = tested on: Cell membrane; assay: Induction of cell membrane permeability in methicillin-resistant Staphylococcus aureus clinical isolate MRSA-16 assessed as dead cells (Q1 region) at 4 ug/ml incubated for 2 hrs by SYTO 9 and PI staining based flow cytometry analysis (reference value: 0.00%); format: cell membranes; conditions: dose 4.0 µg/ml
# [7] = tested on: Staphylococcus aureus; assay: Antibacterial activity against methicillin-resistant Staphylococcus aureus clinical isolate MRSA-17 measured after 16 to 18 hrs by CLSI method; format: functional; conditions: time 16-18 hrs
# [8] = Toxicity in Kunming mouse assessed as effect on kidney at 10 mg/kg, sc measured after 24 hrs by H and E staining based analysis; format: organism-based; conditions: in vivo
# [9] = Cytotoxicity against human L02 cells assessed as cell viability at <=16 ug/ml by CCK-8 method relative to control; format: toxicity, cell-based; conditions: up to 16 µg/mL, read-out: Activity
# [10] = Selectivity index, ratio of HC50 for hemolytic activity in sheep erythrocytes to MIC for antibacterial activity against Staphylococcus aureus ATCC 29213; format: toxicity, cell-based; conditions: read-out: Selectivity Index
# [11] = tested on: Staphylococcus aureus; assay: Antibacterial activity against methicillin-resistant Staphylococcus aureus clinical isolate MRSA-22 measured after 16 to 18 hrs by CLSI method; format: functional; conditions: time 16-18 hrs
# [12] = tested on: Staphylococcus aureus; assay: Antibacterial activity against methicillin-resistant Staphylococcus aureus infected in Kunming mouse skin infection model assessed as effect on skin abscesses at 4 mg/kg,sc measured after 24 hrs; format: functional, organism-based
# [13] = tested on: Cell membrane; assay: Induction of cell membrane permeability in methicillin-resistant Staphylococcus aureus clinical isolate MRSA-16 assessed as increase in damaged cells (Q2 region) at 64 ug/ml incubated for 2 hrs by SYTO 9 and PI staining based flow cytometry analysis (reference value: 0.91%); format: cell membranes; conditions: dose 64.0 µg/ml
# [14] = Toxicity in Kunming mouse assessed as swelling in back of skin at 20 mg/kg, sc measured after 24 hrs; format: organism-based; conditions: in vivo
# [15] = tested on: Staphylococcus aureus; assay: Antibacterial activity against methicillin-resistant Staphylococcus aureus infected in Kunming mouse skin infection model assessed as effect on skin lesions in subcutaneous tissue at 8 mg/kg,sc measured after 24 hrs; format: functional, organism-based
# [16] = Toxicity in Kunming mouse assessed as effect on spleen at 4 to 8 mg/kg, sc measured after 24 hrs by H and E staining based analysis; format: organism-based; conditions: in vivo, dose 4-8 mg/kg
# [17] = tested on: Staphylococcus aureus; assay: Antibacterial activity against methicillin-resistant Staphylococcus aureus infected in Kunming mouse skin infection model assessed as effect on skin abscesses in subcutaneous tissue at 8 mg/kg,sc measured after 24 hrs; format: functional, organism-based
# [18] = tested on: Staphylococcus aureus; assay: Antibacterial activity against methicillin-resistant Staphylococcus aureus in presence of cardiolipin; format: functional, organism-based
# [19] = tested on: Cell membrane; assay: Induction of cell membrane permeability in methicillin-resistant Staphylococcus aureus clinical isolate MRSA-16 assessed as dead cells (Q1 region) at 8 ug/ml incubated for 2 hrs by SYTO 9 and PI staining based flow cytometry analysis (reference value: 0.00%); format: cell membranes; conditions: dose 8.0 µg/ml
# [20] = tested on: Staphylococcus aureus; assay: Antibacterial activity against methicillin-resistant Staphylococcus aureus clinical isolate MRSA-16 measured after 16 to 18 hrs by CLSI method; format: functional; conditions: time 16-18 hrs
# [21] = Toxicity in Kunming mouse assessed as histopathological abnormalities in spleen at 10 mg/kg, sc measured after 24 hrs by H and E staining based analysis; format: organism-based; conditions: in vivo
# [22] = tested on: Cell membrane; assay: Induction of cell membrane permeability in methicillin-resistant Staphylococcus aureus clinical isolate MRSA-16 assessed as dead cells (Q1 region) at 16 ug/ml incubated for 2 hrs by SYTO 9 and PI staining based flow cytometry analysis (reference value: 0.00%); format: cell membranes; conditions: dose 16.0 µg/ml
# [23] = tested on: Cell membrane; assay: Induction of cell membrane permeability in methicillin-resistant Staphylococcus aureus clinical isolate MRSA-16 assessed as decrease in intact cells (Q3 region) at 4 ug/ml incubated for 2 hrs by SYTO 9 and PI staining based flow cytometry analysis (reference value: 99.07%); format: cell membranes; design: scale not given: the % may be the effect or the level left; conditions: dose 4.0 µg/ml
smiles,measurement,setting,value
CCCC[N+](C)(CCCC)CCCCCOc1ccc(C2CC(=O)c3c(OC)cc(OCCCCC[N+](C)(CCCC)CCCC)c(CC=C(C)C)c3O2)cc1.[I-].[I-] (stereo not drawn),Activity,[1],Toxic
same,Activity,[2],Non-Toxic
same,MIC,[3],0.25 µg/mL
same,Activity,[4],Non-Toxic
same,Activity,[5],100%
same,Activity,[6],0.44%
same,MIC,[7],0.25 µg/mL
same,Activity,[8],Non-Toxic
same,viability,[9],100%
same,selectivity ratio,[10],> 1280
same,MIC,[11],1 µg/mL
same,Activity,[12],Active
same,Activity,[13],0.02%
same,Activity,[14],Toxic
same,Activity,[15],inactive
same,Activity,[16],Non-Toxic
same,Activity,[17],inactive
same,Activity,[18],Active
same,Activity,[19],2.94%
same,MIC,[20],0.25 µg/mL
same,Activity,[21],Non-Toxic
same,Activity,[22],28.4%
same,Activity,[23],60.8%
